How the values were obtained:
[1] = test system: ATDC5 cells; test: Chondrogenesis activity assay in ATDC5 cells (collagen type II induction, immunofluorescence); assay type: cell-based, mouse; conditions: Mus musculus; for EC50: collagen type II induction in ATDC5 cells, concentration reaching 50% of maximum induction; for Emax: maximum percent induction of collagen type II relative to internal reference compound at 10 μM, ATDC5 cells
In short: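 Collagen type II was stained in fixed, permeabilized cells with an Alexa Fluor 488 secondary and measured by high-content fluorescence imaging. ATDC5 cells had 4 days at 37 °C in insulin-supplemented differentiation medium with compound, typically 40 nM–10 μM, 0.1% DMSO. DMSO wells and a 10 μM internal reference compound were used for normalization.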

[2] = test system: primary human chondrocyte pellet cultures; test: Chondrogenesis activity assay in primary human chondrocyte pellet cultures (proteoglycan (aggrecan) induction, Blyscan assay); assay type: cell-based; conditions: for EC50: 336 h, proteoglycan (aggrecan) induction, primary human chondrocyte pellets, 2 weeks culture; for Emax: Homo sapiens, Chondrocyte, maximum percent proteoglycan (aggrecan) induction relative to the internal reference compound at 10 μM
Procedure: B) Chondrogenesis Activity Assay in Primary Human Chondrocyte Pellet Cultures
In this assay human articular chondrocytes are harvested by enzymatic digestion from articular cartilage and passaged several times to dedifferentiate the chondrocytes and to propagate the cells. Cells are cultured as cell pellets in the presence of the compounds of the invention over 2 weeks, and the chondrogenic differentiation is quantified by the production of the chondrogenic marker aggrecan (proteoglycan).
In detail, primary chondrocytes were harvested by enzymatic digestion from cartilage of osteoarthritis patients undergoing knee joint replacement surgery, and cultured in vitro. Cells were passaged one or two times and aliquots were cryopreserved. To initiate chondrogenesis experiments, cell aliquots were thawn, cultured in Chondrocyte Growth Medium (CGM, Lonza, #CC-3216) and passaged twice to further propagate and dedifferentiate cells. Pellet cultures were initiated by seeding 2.5×10E5 cells per well into a 96-well deep well plate in 600 μl chondrocyte differentiation medium consisting of Dulbecco's Modified Eagle Medium (DMEM, Invitrogen, #41966), 1×ITS-solution (Insulin/Transferrin/sodium selenite; 100× solution: Invitrogen, #51500056), 5 μg/mL linoleic acid (Sigma, #L1012-1G), 1× nonessential amino acids (100× solution: Invitrogen, #11140); 10 nM Dexamethasone, 2 ng/ml TGF-β1 (transforming growth factor β1) and 10 μg/ml ascorbic acid. Cells were spun to pellets by centrifugation (10 min, 400×g). Test compounds dissolved in DMSO were added to yield increasing compound concentrations, typically from 40 nM to 10 μM, and a final DMSO concentration of 0.1%, and the cell pellets cultured at 37° C., and 5% CO2 for 2 weeks. On each 96-well plate, control wells containing no test compound but the same concentration of DMSO, i.e. untreated cells, were included and used as reference for the determination of the effect of the test compounds on the cells, and wells containing an internal reference compound at a concentration of 10 μM were included and used as positive control and for standardizing the results. Chondrocyte differentiation medium and the compounds were exchanged twice weekly until harvest of the pellets.
For harvest of the pellets, medium was removed and the pellet was homogenized by enzymatic digestion. 100 μl of protease solution containing 0.4 mg/ml papain, 50 mM sodium phosphate, 4 mM EDTA and 0.48 mg/ml L-cysteine was added to the pellet in each well of a 96-well plate, the plate was sealed with a plate sealer foil (SILVERseal, Greiner Bio-One) and incubated for 4 to 6 hours at 65° C. with agitation.
The concentration of proteoglycan (aggrecan) was determined by quantification of the sulfated glycosaminoglycan side chains of aggrecan using the Blyscan assay (Kit from Biocolor). Aliquots of the papain-digest were transferred to 400 μl of Blyscan dye solution and incubated at room temperature for 45 min with agitation (1200 rpm). The mixture was centrifuged at 3760×g for 45 min, the supernatant was discarded, and the stained pellet was redissolved in 400 μl of Blyscan dissociation reagent by rotation until the precipitate completely resolved. Optical density was measured at 656 nm using a Tecan Saphire2 instrument, and the amount of proteoglycan determined against a standard curve with chondroitin-4-sulfate.
Induction of proteoglycan (aggrecan) was calculated for each compound concentration relative to the control (untreated cells, i.e. no test compound added), and an EC50 value (effective concentration 50 (in μM (micromollliter)), i.e. the compound concentration at which the effect of the compound on proteoglycan (aggrecan) induction reaches 50% of the maximum induction) was calculated using a sigmoidal signal fit procedure. […]

Row | EC50 [1] [µM] | SMILES | Emax [1] [%] | EC50 [2] [µM] | Emax [2] [%]
1 | > 3.3 | COc1ccc(-c2cc(Br)cc3c2[nH]c2c(C)nc(C)cc23)cc1 [Example 217, 6-Bromo-8-(4-methoxy-phenyl)-1,3-dimethyl-9H-pyrido[3,4-b]indole] | 20 to 50 | 4.9 | > 200
2 | > 3.3 | Cc1nccc2c1[nH]c1c(-c3cccc(N4CCOCC4)c3)cc(Cl)cc12 [Example 247, 6-Chloro-1-mehtyl-8-(3-morpholin-4-yl-phenyl)-9H-pyrido[3,4-b]indole] | < 20 | 3.8 | > 200
3 | > 10 | COc1ccc(-c2cc(Cl)cc3c2[nH]c2c(C)nccc23)cc1Cl [Example 206, 6-Chloro-8-(3-chloro-4-methoxy-phenyl)-1-methyl-9H-pyrido[3,4-b]indole] | 20 to 50 | 19 | < 40
4 | 0.49 | CCn1c2c(-c3cnn(Cc4cccnc4)c3)cc(Br)cc2c2ccnc(C)c21 [Example 5, 6-Bromo-9-ethyl-1-methyl-8-(1-pyridin-3-ylmethyl-1H-pyrazol-4-yl)-9H-pyrido[3,4-b]indole] | > 80 | 1.3 | > 200
5 | > 10 | Cc1nccc2c1[nH]c1c(-c3ccc4c(c3)OC(C)(C)C4)cc(Cl)cc12 [Example 195, 6-Chloro-8-(2,2-dimethyl-2,3-dihydro-benzofuran-6-yl)-1-methyl-9H-pyrido[3,4-b]indole] | < 20 | 14 | < 40
6 | 0.68 | Cc1ccc(-c2cc(Cl)cc3c2[nH]c2c(C)nccc23)cn1 [Example 95, 6-Chloro-1-methyl-8-(6-methyl-pyridin-3-yl)-9H-pyrido[3,4-b]indole] | 50 to 80 | – | –
7 | 0.31 | CCn1c2c(-c3ccc(OCC4(C)COC4)cc3)cc(Br)cc2c2ccnc(C)c21 [Example 257, 6-Bromo-9-ethyl-1-methyl-8-[4-(3-methyl-oxetan-3-ylmethoxy)-phenyl]-9H-pyrido[3,4-b]indole] | > 80 | – | –
8 | 0.1 | COc1ccc(-c2cc(C(N)=O)cc3c2[nH]c2c(C)nccc23)cc1 [Example 36, 8-(4-Methoxy-phenyl)-1-methyl-9H-pyrido[3,4-b]indole-6-carboxamide] | > 80 | – | –
9 | 3.9 | FC(F)(F)Cn1c2cnccc2c2cc(Cl)cc(-c3ccccc3)c21 [Example 128, 6-Chloro-8-phenyl-9-(2,2,2-trifluoro-ethyl)-9H-pyrido[3,4-b]indole] | < 20 | – | –
10 | 3.1 | COc1ccc(-c2cc(C(=O)O)cc3c2[nH]c2c(C)nccc23)cc1 [Example 35, 8-(4-Methoxy-phenyl)-1-methyl-9H-pyrido[3,4-b]indole-6-carboxylic acid] | > 80 | – | –
11 | 0.25 | CCn1c2c(-c3cn[nH]c3)cc(Cl)cc2c2ccnc(C)c21 [Example 239, 6-Chloro-9-ethyl-1-methyl-8-(1H-pyrazol-4-yl)-9H-pyrido[3,4-b]indole] | 50 to 80 | – | –
12 | 1.5 | CN1CCN(c2ccc(-c3cc(Cl)cc4c5ccncc5n(CC(F)(F)F)c34)cn2)CC1 [Example 87, 6-Chloro-8-[6-(4-methyl-piperazin-1-yl)-pyridin-3-yl]-9-(2,2,2-trifluoro-ethyl)-9H-pyrido[3,4-b]indole] | 50 to 80 | – | –
13 | 0.44 | Clc1cc(-c2ccc(Cl)nc2)c2[nH]c3cnccc3c2c1 [Example 73, 6-Chloro-8-(6-chloro-pyridin-3-yl)-9H-pyrido[3,4-b]indole] | 20 to 50 | – | –
14 | 5.6 | FC(F)(F)Cn1c2cnccc2c2cc(Cl)cc(-c3cnc4ccccc4c3)c21 [Example 61, 6-Chloro-8-quinolin-3-yl-9-(2,2,2-trifluoro-ethyl)-9H-pyrido[3,4-b]indole] | > 80 | – | –

Continued, compound first:

Row | SMILES | EC50 [1] [µM] | Emax [1] [%] | EC50 [2] [µM] | Emax [2] [%]
15 | COC(=O)c1cc2c([nH]c3c(-c4ccc(Cl)nc4Cl)cc(Cl)cc32)c(C)n1 [Example 117, 6-Chloro-8-(2,6-dichloro-pyridin-3-yl)-1-methyl-9H-pyrido[3,4-b]indole-3-carboxylic acid methyl ester] | > 10 | < 20 | 27 | < 40
16 | Cc1nccc2c1[nH]c1c(-c3cccnc3OCc3ccccc3)cc(Cl)cc12 [Example 119, 8-(2-Benzyloxy-pyridin-3-yl)-6-chloro-1-methyl-9H-pyrido[3,4-b]indole] | > 3.3 | < 20 | 21 | 40 to 100
17 | CCOC(=O)c1ccc2[nH]c(-c3cc(Cl)cc4c3[nH]c3c(C)nccc34)cc2c1 [Example 203, 2-(6-Chloro-1-methyl-9H-pyrido[3,4-b]indol-8-yl)-1H-indole-5-carboxylic acid ethyl ester] | > 10 | < 20 | – | –
18 | COc1cc(-c2cc(Cl)cc3c2[nH]c2c(C)nccc23)ccc1OCc1ccccc1 [Example 222, 8-(4-Benzyloxy-3-methoxy-phenyl)-6-chloro-1-methyl-9H-pyrido[3,4-b]indole] | > 10 | < 20 | – | –
19 | CCc1nc(C)cc2c3cc(Br)cc(-c4cnn(C)c4)c3n(CC)c12 [Example 210, 6-Bromo-1,9-diethyl-3-methyl-8-(1-methyl-1H-pyrazol-4-yl)-9H-pyrido[3,4-b]indole] | > 3.3 | < 20 | – | –
20 | Cc1nccc2c1[nH]c1c(-c3ccc(OCC4COc5ccccc5O4)cc3)cc(Cl)cc12 (stereo not shown) [Example 278, 6-Chloro-8-[4-(2,3-dihydro-benzo[1,4]dioxin-2-ylmethoxy)-phenyl]-1-methyl-9H-pyrido[3,4-b]indole] | > 3.3 | 20 to 50 | – | –
21 | CCn1c2c(-c3ccc(N4CCOCC4)nc3)cc(Cl)cc2c2ccnc(C)c21 [Example 93, 6-Chloro-9-ethyl-1-methyl-8-(6-morpholin-4-yl-pyridin-3-yl)-9H-pyrido[3,4-b]indole] | 2.2 | > 80 | – | –
22 | CSc1ccc(-c2cc(Cl)cc3c2[nH]c2c(C)nccc23)cn1 [Example 120, 6-Chloro-1-methyl-8-(6-methylsulfanyl-pyridin-3-yl)-9H-pyrido[3,4-b]indole] | 1.4 | 50 to 80 | – | –
23 | CCn1c2c(-c3ccnc(N4CCN(C)CC4)c3)cc(Cl)cc2c2ccnc(C)c21 [Example 219, 6-Chloro-9-ethyl-1-methyl-8-[2-(4-methyl-piperazin-1-yl)-pyridin-4-yl]-9H-pyrido[3,4-b]indole] | > 3.3 | < 20 | – | –
24 | COc1ncc(-c2cc(Cl)cc3c2[nH]c2c(C)nccc23)cc1F [Example 99, 6-Chloro-8-(5-fluoro-6-methoxy-pyridin-3-yl)-1-methyl-9H-pyrido[3,4-b]indole] | > 10 | < 20 | – | –
25 | CC(=O)OCCn1cc(-c2cc(Cl)cc3c4ccncc4n(CC(F)(F)F)c23)cn1 [Example 163, Acetic acid 2-(4-[6-chloro-9-(2,2,2-trifluoro-ethyl)-9H-pyrido[3,4-b]indol-8-yl]-pyrazol-1-yl)-ethyl ester] | 0.69 | > 80 | – | –
26 | Cc1nccc2c1[nH]c1c(-c3ccnc(N)c3)cc(Cl)cc12 [Example 215, 4-(6-Chloro-1-methyl-9H-pyrido[3,4-b]indol-8-yl)-pyridin-2-ylamine] | 0.23 | > 80 | – | –
27 | FC(F)(F)Cn1c2cnccc2c2cc(Cl)cc(-c3csc(Cl)c3)c21 [Example 76, 6-Chloro-8-(5-chloro-thiophen-3-yl)-9-(2,2,2-trifluoro-ethyl)-9H-pyrido[3,4-b]indole] | – | 20 to 50 | – | –

From patent US12275733B2, “Substituted pyrido[3,4-b]indoles for the treatment of cartilage disorders” (Sanofi, priority 2016, dated 2025)
